Experimental data as given in patent US8747809B2, “Single diastereomers of 4-fluoroglutamine and methods of their preparation and use” (The Trustees Of The University Of Pennsylvania, priority 2009, dated 2014).
Entries after “also recorded” stand apart in the source; their conditions may differ.

Key:
9 L tumor cell line = assay: In vitro cell uptake studies of the four 4-[18F]F-glutamine isomers; format: cell-based, rat; conditions: 18F-labeled isomer, 37° C., 5-120 min, compared to [3H]glutamine
Procedure: Cell uptake of four possible isomers was evaluated using 9 L tumor cell line. The cell uptake results (% dose/100 μg protein) were compared to that of [^3H] glutamine.
(§1) Because of this observation, we decided only to further investigate the (2S,4R) isomer of [^18F]4-FGln, 1. In vitro cell uptake inhibition studies were conducted in 9 L cells in order to test the specificity of [^18F]4-FGln (2S,4R), 1. Cold L-glutamine and L-serine served as the positive control inhibitors for the glutamine transporters. L-glutamine inhibits system N transporter and L-serine inhibits the ASC transporter. Three different concentrations were tested for each inhibitor ranging from 0.5 mM to 5 mM. After 30 minutes of co-incubation of L-glutamine and [^18F] […] Cold MeAIB served as the negative control, which inhibits system A transporter.
(§2) The cellular uptake of each of the four 4-[^18F]F-glutamine isomers (2S,4R), (2S,4S), (2R,4S) and (2R,4R) were studied in (9 L) rat brain gliosarcoma cells. L-[3,4-^3H(N)]-glutamine, >97%, 250 μCi (9.25 MBq), was purchased from Perkin Elmer and was used as a control for all of the cellular uptake experiments conducted. […] All four of the 4-[^18F]F-glutamine isomers and the L-[3,4-^3H(N)]-glutamine was dissolved in PBS solution and was added to each well (500,000 cpm/mL/well) and incubated at 37° C. for 5, 30, 60, 120 min. At the end of the incubation period, the wells were aspirated and then the residual cells were washed 3 times with 1 mL ice cold PBS without Ca^2+ and Mg^2+. After washing with cold PBS, 350 μL 1M NaOH was used to lyse the cells. The lysed cells were collected onto filter paper. The filter papers were placed in scintillation vials and counting fluid was added (7 mL ecolite+) and the vials were then counted with a beta counter 18-24 h later. For dual-isotope studies using 4-[^18F]F-glutamine isomers and L-[3,4-^3H(N)]-glutamine, the vials were counted first using a gamma counter to obtain ^18F counts. The beta counts were then obtained one day later after the ^18F was fully decayed. 100 μL of the cell lysate was used for the determination of the protein concentration by Lowry method.

9 L cells = assay: In vitro inhibition studies of 4-[18F]F-glutamine (2S,4R) uptake; format: cell-based, rat; conditions: for effect of inhibitor on tracer uptake / transporter (in words): 0.5 mM to 5 mM; for uptake of [18F]4-FGln (2S,4R) in presence of inhibitor: 30 minutes co-incubation, 5 mM stated for MeAIB, control 3.56
Procedure: as §1, §2
To test the specificity of the 4-[^18F]F-glutamine (2S,4R) isomer, inhibition studies were conducted using 9 L cells. The tracer was incubated at 37° C. for 30 min. The cells were processed as previously described as above. Cold L-glutamine and L-Serine served as the positive control inhibitors for the glutamine transporters. L-glutamine inhibits system N transporter and L-Serine inhibits the ASC transporter. Cold MeAIB served as the negative control, which inhibits system A transporter. Three different concentrations were tested for each inhibitor ranging from 0.5 mM to 5 mM.

Row | Structure (SMILES) | cell uptake in 9 L cells (in words) (9 L tumor cell line) | effect of inhibitor on tracer uptake / transporter (in words) (9 L cells; 30 min) | uptake of [18F]4-FGln (2S,4R) in presence of inhibitor (9 L cells) | further results
1 | NC(=O)[C@H](F)C[C@H](N)C(=O)O [Compound 1, (2S,4R)-2,5-Diamino-4-fluoro-5-oxopentanoic acid] |  |  |  | cell uptake in 9 L cells (in words) (9 L tumor cell line; listed as 4-FGln (2S,4R)): high uptake; also recorded: excellent uptake
2 | NC(=O)[C@@H](F)C[C@@H](N)C(=O)O [Compound 3, (2R,4S)-4-FGln] | lower cell uptake |  |  | 
3 | NC(=O)[C@H](F)C[C@@H](N)C(=O)O [Compound 4, (2R,4R)-4-FGln] | lower cell uptake |  |  | 
4 | NC(=O)CC[C@H](N)C(=O)O [L-glutamine] |  | clearly inhibited | 0.49 % dose/100 ug protein | inhibition at 5000 µM (9 L cells; Rattus norvegicus, 0.5 h, 30 min, [5 mM], read-out: inhibition of [18F]4-FGln (2S,4R) uptake): ~90%
5 | N[C@@H](CO)C(=O)O [L-serine] |  | considerable inhibition | 1.41 % dose/100 ug protein | 
6 | CNC(C)(C)C(=O)O [MeAIB] |  | little to no effect | 3.69 % dose/100 ug protein | 
